What all share (type): in vivo, mouse
For assay [1], the system named is DIO mice. The assay is described as follows: 13-day chronic subcutaneous infusion in DIO mice. Here is the method: (§1) Immediately following surgery, mice were given an im injection of atapimazole. Five days following the initial surgery, mice were again anesthetized and placed in the stereotactic device. Micro-osmotic pumps were removed and replaced with mini-osmotic pumps designed to deliver 0.5 μl/h (Alza Co.) and filled with either aCSF or mouse NMU-23 (Mimotopes) or MTII (Bachem) dissolved in aCSF. The pH of all solutions was adjusted to ˜7 with NaOH. Immediately following surgery, mice were given an im injection of atapimazole. For chronic sc infusions studies, mice were anesthetized and then a micro-osmotic pump designed to deliver 0.5 μl/h and filled with either sterile H2O or mouse NMU-23 (Mimotopes) or MTII (Bachem) dissolved in sterile H2O was implanted subcutaneously in the intrascapular space. The pH of all solutions was adjusted to ˜7 with NaOH. Immediately following surgery, mice were given an im injection of atapimazole.
(§2) The Nmur1 mice were maintained on a 50% C57BL/6×50% 129S6/SvEv background and Nmur2 mice (licensed from Deltagen) on a 75% C57BL/6×25% 129/OlaHsd background. For comparison with wild-type, 10-12 week-old male C57BL/6 mice were purchased from Taconic Farms. Mice were individually housed in Tecniplast cages in a conventional SPF facility. Mice were maintained on either regular chow (Teklad 7012: 13.4% kcal from fat; Harlan Teklad), a moderate fat diet (D12266B: 32% kcal from fat; Research Diets, Inc.) or, to induce obesity (DIO), a high fat diet (D12492: 60% kcal from fat; Research Diets, Inc.) with ad libitum access to water in a 12-h light/12-h dark cycle, unless stated otherwise.

In assay [2] the test system is Nmur2−/− mice. The assay is described as follows: Acute central (i.c.v.) NMU administration in NMUR2 knockout mice. To be noted: i.c.v. 3 μg NMU, 2 h. Here is the method: (§3) FIG. 2A describes results from an experiment where C57BL/6 mice were dosed intracerebronventricularly (i.c.v) with either vehicle (aCSF) or NMU ˜30 min. prior to the onset of the dark phase and food intake was measured 2 h later. *, P<0.05 vs. vehicle; n=12-24 per group. In FIG. 2B, Nmur1 or Nmur2 mice were dosed i.c.v. with either vehicle (aCSF) or 3 μg NMU ˜30 min. prior to the onset of the dark phase and food intake was measured 2 h later. *, P<0.05 vs. corresponding vehicle; #, P<0.05 vs. Nmur2+/+, NMU; n=14 per treatment group.
(§4) Mice were anesthetized with an intramuscular (im) injection of ketamine (100 mg/kg) and domitor (0.75 mg/kg) and placed in a stereotactic device (Kopf Instruments). […]
(§5) For acute nocturnal feeding studies, ad libitum fed male mice maintained on regular chow were weighed and dosed either intraperitoneally (ip) or icv ˜30 min prior to the onset of the dark phase of the light cycle and provided with a preweighed aliquot of chow which was then weighed two and 18 hours (overnight) after the onset of the dark phase. […] For chronic feeding studies, ad libitum fed male mice normally maintained on regular chow were switched to a palatable moderate fat diet at the initiation of treatment and food intake and body weight were measured daily.

Assay [3] concerns C57BL/6 mice. The assay is described as follows: 14-day chronic i.c.v. infusion via Alzet mini-osmotic pumps. As for the experimental part: FIG. 4 depicts treatment of C57BL/6 mice with either vehicle (aCSF); 12, 36 or 120 μg NMU/day; or 4.8 μg MTII/day for 14 days via Alzet mini-osmotic pumps implanted subcutaneously in the intrascapular space and connected with a catheter to a permanent indwelling i.c.v cannula implanted in the dorsal third cerebroventricle. 14-day cumulative effects on body weight (A), adiposity (B) and food intake (C). *, P<0.05 vs. vehicle; n=5-8 per group.
Mice were anesthetized with an intramuscular (im) injection of ketamine (100 mg/kg) and domitor (0.75 mg/kg) and placed in a stereotactic device (Kopf Instruments). For acute i.c.v. studies, a 26-gauge single acute guide cannula (Plastics One) was implanted into the dorsal third cerebral ventricle (0.22 mm posterior, 0.3 mm lateral and 3.3 mm ventral to bregma) and secured to the skull with cyanoacrylate adhesive followed by dental cement. Following surgery, a 33-gauge dummy cannula (Plastics One) was inserted into each guide cannula and mice were given an im injection of atapimazole (5 mg/kg). All cannulated mice were given one week of postoperative recovery, during which time they were handled daily to minimize nonspecific stress. All substances were administered to conscious mice with a repeating dispenser (Hamilton) equipped with a 50-μl Hamilton syringe and 33-gauge needle designed to extend 0.1-0.2 mm beyond the tip of the guide cannula. Mouse NMU-23 (Phoenix Pharmaceuticals) was dissolved in artificial cerebrospinal fluid (aCSF; Harvard Apparatus) and adjusted the pH to ˜7 with NaOH. All substances were injected in a total volume of 1 μl. Mice were given at least a 48-h recovery period between treatments. All acute icv injection studies were of crossover design, a paradigm in which mice initially treated with vehicle are subsequently treated with the agent of interest dissolved in vehicle and vice versa. For chronic icv studies, a 28-gauge osmotic pump connector cannula (Plastics One) was implanted into the dorsal third cerebral ventricle and secured to the skull. Then a micro-osmotic pump designed to deliver 0.5 μl/h (Alza Co.) and filled with aCSF was implanted subcutaneously in the intrascapular space and connected with vinyl tubing to the osmotic pump connector cannula.
as §1
For acute nocturnal feeding studies, ad libitum fed male mice maintained on regular chow were weighed and dosed either intraperitoneally (ip) or icv ˜30 min prior to the onset of the dark phase of the light cycle and provided with a preweighed aliquot of chow which was then weighed two and 18 hours (overnight) after the onset of the dark phase. Mice were again weighed at the later time point. For chronic feeding studies, ad libitum fed male mice normally maintained on regular chow were switched to a palatable moderate fat diet at the initiation of treatment and food intake and body weight were measured daily. […]

In assay [4] the test system is Nmur1−/− mice. The assay is described as follows: Acute central (i.c.v.) NMU administration in NMUR1 knockout mice. To be noted: centrally administered NMU. As for the experimental part: as §3, §4, §5
Assay [5] deals with C57BL/6 mice. As to the kind of experiment: 7-day chronic s.c. infusion via Alzet micro-osmotic pumps. To be noted: C57BL/6 mice, 0.3, 1, 3 or 10 mpk NMU/day s.c. infusion for 7 days.
Text: FIG. 3 describes the results from treatment of C57BL/6 mice with either vehicle (H2O); 0.3, 1, 3 or 10 mpk NMU/day; or 10 mpk MTII/day for 7 days via Alzet micro-osmotic pumps implanted sc in the intrascapular space. 7-day cumulative effects on body weight (A), adiposity (B) and food intake (C). *, P<0.05 vs. Vehicle; n=4-10 per treatment group.
as §1, §5
Whole body composition analysis of conscious live mice was conducted using a Quantitative Magnetic Resonance (QMR) method (EchoMRI™, Echo Medical Systems, Houston, Tex.) (Tinsley et al. (2004) Obesity Research 12:150). […]

The test system of assay [6] is C57BL/6 mice. The assay is described as follows: Acute nocturnal feeding study, peripheral (i.p.) NMU in wild-type mice. The conditions noted are these: i.p. (peripheral) ~30 min before dark phase, measured 18 h later. Here is the method:
(§6) Food intake (FIG. 1A) and body weight (FIG. 1B) were measured in C57BL/6 mice dosed intraperitoneally (i.p.) either with vehicle (saline) or with NMU approximately 30 minutes prior to onset of darkness. Measurements were taken about 18 hours later. * indicates p value of <0.05, n=6 per treatment group. In FIGS. 1C and 1D, food intake and body weight are measured in Nmur1 and Nmur2 mice dosed ip with either saline or 30 mg/kg (mkg) NMU about 30 minutes prior to the onset of the dark phase. Measurements were taken 18 hrs later. *, P<0.05 vs. saline, n=6 per treatment group. Nmur1 or Nmur2 mice were dosed i.p. with either vehicle (saline) or 30 mpk NMU ˜30 min. prior to the onset of the dark phase and food intake (C) and body weights (D) were measured 18 h (overnight) later. *, P<0.05 vs. corresponding vehicle; #, P<0.05 vs. Nmu1r+/+, NMU; $, P=0.052; n=10 per treatment group.
(§7) The Nmur1 mice were maintained on a 50% C57BL/6×50% 129S6/SvEv background and Nmur2 mice (licensed from Deltagen) on a 75% C57BL/6×25% 129/OlaHsd background. For comparison with wild-type, 10-12 week-old male C57BL/6 mice were purchased from Taconic Farms. Mice were individually housed in Tecniplast cages in a conventional SPF facility. […]
All resultant measurement values were reported as mean±S.E.M. and data was analyzed by the two-tailed unpaired Student's t test. […]

The test system of assay [7] is C57BL/6 mice. The assay is described as follows: Acute nocturnal feeding study, central (i.c.v.) NMU in wild-type mice. The conditions noted are these: measured 2 h later. Here is the method:
as §3, §4, §5

In assay [8] the test system is diet-induced obese C57BL/6 mice. The assay is described as follows: Core body temperature after acute i.p. dosing of fasted diet-induced obese mice. The conditions noted are these: overnight fasted DIO C57BL/6 mice, i.p. 0.3, 1, 3 or 10 mpk NMU, 6 h monitoring. Here is the method:
FIG. 5 presents the results of an experiment where overnight fasted diet-induced obese C57BL/6 mice were dosed i.p. with either vehicle (saline); 0.3, 1, 3 or 10 mpk NMU; or 5 mpk MTII. Core temperature is plotted as change from vehicle baseline. A, hourly change. B, 6-h cumulative change.
Body temperature changes were measured as well. Male diet-induced obese mice maintained on a high fat diet were implanted with Mini-Mitter transmitters (Mini Mitter, Bend, Oreg.) prior to the study. Temperature recordings were initiated one day prior to dosing. Mice were fasted overnight and then the following morning 3 h after the onset of the light phase mice were dosed ip. Core body temperature was monitored for 6 h following dosing.

Assay [9] deals with Nmur1−/− mice. The assay is described as follows: Acute NMU administration (peripheral, i.p.) in NMUR1 knockout mice. Here is the method: as §6
Nmur1 knockout (Nmur1^−/−) mice were generated using standard homologous recombination techniques. Briefly, a mouse genomic DNA library was screened with a mouse Nmur1mur cDNA probe, which was generated by PCR. One positive clone was isolated. Two regions of the clone were subcloned into pKO Scrambler NTKV-1904 (Stratagene) and a targeting vector was generated. The targeting vector was linearized by NotI restriction enzyme digestion and transformed into AB2.1 embryonic stem (ES) cells by electroporation with a Bio-Rad Gene Pulser. Transfected cells were cultured with G418 and FIAU for positive and negative selections, respectively. Approximately 500 clones were selected, and 20 correctly targeted ES cell clones were identified by Southern blot analysis. Five correctly targeted ES clones were injected into C57BL/6 blastocysts and these were implanted into pseudopregnant female mice. Several chimeric progeny gave germ-line transmission of the mutant NMUR1 allele and one NMUR1^−/− was established. F3 hybrid mice were used in all experiments
as §2
(§8) For acute nocturnal feeding studies, ad libitum fed male mice maintained on regular chow were weighed and dosed either intraperitoneally (ip) or icv ˜30 min prior to the onset of the dark phase of the light cycle and provided with a preweighed aliquot of chow which was then weighed two and 18 hours (overnight) after the onset of the dark phase. Mice were again weighed at the later time point. For chronic feeding studies, ad libitum fed male mice normally maintained on regular chow were switched to a palatable moderate fat diet at the initiation of treatment and food intake and body weight were measured daily.

Assay [10] has as its system Nmur2−/− mice. The assay is described as follows: Acute peripheral (i.p.) NMU administration in NMUR2 knockout mice. To be noted: peripherally administered NMU. Here is the method: as §6, §7
The test system of assay [11] is lean and DIO C57BL/6 mice. As to the kind of experiment: Ad libitum food intake of lean and DIO mice after rat NMU peptide. As for the experimental part: as §8
[12] abbreviates: C57BL/6 mice, 12, 36 or 120 μg NMU/day i.c.v. infusion for 14 days.
The mark [13] stands for this setting: C57BL/6 mice, 12, 36 or 120 μg NMU/day i.c.v. infusion for 14 days, listed as mouse NMU-23.
The mark [14] stands for this setting: Nmur1−/− transgenic mice, mouse NMU-23 peptide administration, route not stated.

Entries after “also recorded” stand apart in the source; their conditions may differ. Where no end group is shown, it is not given here.

As for “NMU: Mouse NMU-23 neuromedin U peptide (Phoenix Pharmaceuticals, Mimotopes), agonist of NMUR1 and NMUR2 (FKAEYQSPSVGQSKGYFLFRPRN; ends and bridges not checked; UniProt Q9QXK8 144-166, looked up)”, the body weight entry is reported as “demonstrable effects” in assay [1]; “dose-dependent reduction” in assay [6]; “not seen” in assay [9] (Nmur1 knockout mice, peripheral (i.p.) 30 mpk NMU, 18 h); “largely unaffected” in assay [9] (setting [14]). Further, in assay [1], the core temperature entry is recorded as “demonstrable effects”. Further, the food intake result is listed as “demonstrable effects” in assay [1], “dose-dependent reduction; also recorded: reduces” in [6], “reduces” in assay [7] and “largely unaffected” in [9] (setting [14]). In addition, the “food intake (anorectic action)” value in assay [2] is listed as “do not show the same reduction; also recorded: absent”; in [9] (Nmur1 knockout mice, peripheral (i.p.) 30 mpk NMU, 18 h, 30 mg/kg) it was “not seen; also recorded: absent”. The body composition result in assay [3] (14-day chronic i.c.v. infusion) was “Effects are also seen”. Moreover, in assay [3] (setting [12]), the “adiposity, 14-day cumulative” value is on record as “dose-dependent cumulative effects; also recorded: reduces”. Moreover, the “body weight, 14-day cumulative” value in assay [3] (setting [12]) is listed as “dose-dependent cumulative effects; also recorded: reduces”; in assay [3] (setting [13]) it was “Effects are also seen”. Further, the figures for the “food intake, 14-day cumulative” value in [3] (setting [12]) and in assay [3] (setting [13]) were “dose-dependent cumulative effects; also recorded: reduces” and “Effects are also seen”, respectively. Moreover, the “anorectic actions (food intake)” value in assay [4] and in assay [10] was “present” each time. The “adiposity, 7-day cumulative” value in [5] is on record as “dose-dependent effects; also recorded: reduces”. In assay [5], the “body weight, 7-day cumulative” value is reported as “dose-dependent effects; also recorded: reduces”. In addition, the “food intake, 7-day cumulative” value in assay [5] is “dose-dependent effects; also recorded: reduces”. Moreover, in assay [8], the “core body temperature (change from vehicle baseline)” value is reported as “dose-dependent effect; also recorded: dose-dependently increases”. Further, in assay [9] (setting [14]), the body temperature entry is given as “largely unaffected”.
Turning to “rNMU-23: a rat NMU peptide (YKVNEYQGPVAPSGGFFLFRPRN; ends and bridges not checked; UniProt P12760 144-166, looked up)”, the “ad libitum food intake” value in assay [11] is recorded as “mimic those of the mouse isoform”.

The values are drawn from patent US20090089889A9, “Neuromedin u receptor subtype 1 deficient transgenic mice and uses thereof” (priority 2006, published 2009).
